Experiment [1] deals with Anguilla japonica leptocephali. In words: Induction of Anguilla japonica metamorphosis by T4 treatment in 23° C. breeding water. The experiment is classed as in vivo. Also noted: key: Y: Metamorphosis completed (seed production completed).; Nd: Dead.; Nf: Food intake unidentified.; Ng: Not metamorphosed into glass eels. From the text:
(§1) Stage 1: Starting phase of metamorphosis. The rostral end is rounded, and intestinal degeneration starts.
(§2) Stage 2: Peak phase of metamorphosis. Intestinal degeneration becomes pronounced. In the second half, the anus reaches to near the last vertical blood vessel (VBV last).
(§3) Stage 3: Late phase of metamorphosis. The preanal length (PAL) becomes equal to or shorter than the last vertical blood vessel length (VBV last Length) (PAL VBV last Length). The body height is apparently low.
(§4) Stage 4: Pre-glass eel stage. Almost the eel form, but the body height still remains. Melanophores on the body surface or endogenous melanophores are not yet seen.
(§5) Elver stage: Juvenile stage. Food intake can be identified.
(§6) A thyroid hormone (e.g., thyroxine (T4)) is adjusted to 50 to 100 mM in a 1- to 2-mL volume messflask. As a solvent, known solvents (water, alcohol) can be used. Ethanol is preferably used as the solvent.
(§7) For example, using ethanol as a solvent, T4 adjusted to 50 mM is diluted 500-fold, 5,000-fold, and 50,000-fold, respectively, and adjusted to […], 1 μM, and 100 nM. A feed can be prepared in this manner.
(§8) Artificial seawater is added to a breeding vessel, and 1/1000 of the […] T4 is added to prepare […] T4 breeding water.
(§9) Half of the breeding water is replaced every two days with breeding water of the same concentration. In the case where the concentration is changed, for example, in the case of changing from 10 nM to 2 nM, 80% to the breeding water is removed, and unadjusted artificial seawater is newly added to make 1 L.
(§10) Leptocephali visually considered to have reached a total length of 40 mm (or may be 30 mm to 50 mm, may be 35 mm to 45 mm, or may also be 35 mm or more, 40 mm or more, or 45 mm or more) are selected, anesthetized with 2-phenoxyethanol, and then photographed, and the total length of each larva is measured using an image analyzing device.
(§11) The larvae are placed in 10 nM T4 breeding water and then placed in an incubator set at 23° C., and breeding is started. In first one week, observation is performed every two days, and half of the 10 nM T4 breeding water is replaced each time. The average amount of thyroid hormone in the breeding water in stage 1 is 1 nM to 100 nM, for example, and may also be 3 nM to 30 nM, or 5 nM to 20 nM.
(§12) For larvae visually judged to have reached the second half of stage 2, the concentration of the breeding water is changed. The breeding water is diluted 5-fold or 10-fold and adjusted to 2 nM or 1 nM T4, and breeding is continued. The average amount of thyroid hormone in the breeding water in stage 2 may be, as compared with the breeding water of stage 1, diluted 2-fold to 20-fold, diluted 3 to 15-fold, or diluted 5 to 10-fold as described above. The average amount of thyroid hormone in the breeding water in stage 2 is 0.1 nM to 20 nM, for example, and may also be 0.5 nM to 10 nM, 1 nM to 5 nM, or 1 nM to 2 nM.
For larvae visually judged to have reached stage 3, the breeding water is quickly changed 0.2 nM T4 breeding water, which is a 5-fold dilution of 1 nM T4 breeding water, and further changed to 0.1 nM T4 breeding water on the following day. […] Also, in larvae whose anus position has not reached the last vertical hemal spine, when they are judged to be on the brink of stage 3, the concentration is changed as above. The average amount of thyroid hormone in the breeding water in stage 3 may be, as compared with the breeding water of stage 2, diluted 2-fold to 50-fold, diluted 3 to 15-fold, diluted 4 to 6-fold, or diluted 5-fold as described above. The average amount of thyroid hormone in the breeding water in stage 3 is 0.01 nM to 2 nM, for example, and may also be 0.05 nM to 1 nM, 0.1 nM to 0.5 nM, or 0.1 nM to 0.2 nM. […] That is, the concentration may be changed such that the thyroid hormone becomes undetectable in the breeding water in the course of stage 3.
In stage 3, breeding is continuously performed in the 0.1 nM T4 breeding water. […]

For experiment [2], the system named is Anguilla japonica leptocephali. The experiment is described as above. Format: in vivo. Details: key: Y: Metamorp completed (seed production completed).; Nd: Dead.
From the text: as §1, §2, §3, §4, §5, §6, §7, §8, §9, §10, §11, §12
For larvae visually judged to have reached stage 3, the breeding water is quickly changed 0.2 nM T4 breeding water, which is a 5-fold dilution of 1 nM T4 breeding water, and further changed to 0.1 nM T4 breeding water on the following day. […] Also, in larvae whose anus position has not reached the last vertical hemal spine, when they are judged to be on the brink of stage 3, the concentration is changed as above. […]

Among the data in patent publication US20200093103A1, “BREEDING WATER FOR ANGUILLIFORMES AND METHOD FOR REARING ANGUILLIFORMES” (SHIN NIPPON BIOMEDICAL LABORATORIES, LTD., priority 2016, published 2020) are Elver values, retold here.

For `N[C@@H](Cc1cc(I)c(Oc2cc(I)c(O)c(I)c2)c(I)c1)C(=O)O` [T4, thyroxine], the Elver entry in experiment [1] (individual Exp 6-2, 129 days old, total length 38.1 mm at start of T4 treatment) is reported as “Y”; in experiment [1] (individual Exp 6-3, 129 days old, total length 37.4 mm at start of T4 treatment), “Y”; in experiment [1] (individual Exp 6-4, 129 days old, total length 36.6 mm at start of T4 treatment) it was “Y”; in experiment [1] (individual Exp 6-5, 129 days old, total length 36.4 mm at start of T4 treatment), “Ng”; in experiment [1] (individual Exp 6-6, 129 days old, total length 34.6 mm at start of T4 treatment), “Nf”; in experiment [1] (individual Exp. 6-1, 129 days old, total length 40.6 mm at start of T4 treatment) it was “Y”. Moreover, the Elver result in experiment [2] (individual Exp 5-4, 175 days old, total length 43.5 mm at start of T4 treatment) is reported as “Y”; in experiment [2] (individual Exp 5-5, 174 days old, total length 36.1 mm at start of T4 treatment) it was “Y”; in experiment [2] (individual Exp. 5-1, 175 days old, total length 38.5 mm at start of T4 treatment) it was “Y”; in experiment [2] (individual Exp. 5-2, 175 days old, total length 41.3 mm at start of T4 treatment) it was “Y”; in experiment [2] (individual Exp. 5-3, 175 days old, total length 41.7 mm at start of T4 treatment), “Y”.
